According to the NIST ThermoML archive (doi:10.1021/je060052p):
± gives the expanded uncertainty stated by the source.

Columns and labels:
[1] = refractive index (Na D-line) (dimensionless); details: 298.15 K; 101.33 kPa; Liquid
[2] = Liquid; for mass density / speed of sound: 298.15 K, 101.33 kPa; for vapor or sublimation pressure: Ebulliometric method (Recirculating still)
[3] = xn = mol fraction of the nth substance listed; details: 298.15 K, 101 kPa, Liquid
[4] = refractive index (Na D-line) (dimensionless); xn = mol fraction of the nth substance listed; details: 298.15 K, 101 kPa, Liquid

COC(C)=O [methyl ethanoate]
Details	mass density [kg/m3]	refractive index	speed of sound [m/s]
[1]	–	1.35865 ± 0.0012	–
[2]	926.96 ± 0.3	–	1148 ± 3

Details	vapor or sublimation pressure [kPa]
[2], 330.03 K	101.3 ± 1

CCOC(=O)C(C)O (stereo not drawn) [DL-ethyl lactate] + CCOC(C)=O
Details	mass density, [3] [kg/m3]	refractive index, [4]	speed of sound, [3] [m/s]
x2 = 0.049	1022.5 ± 0.34	1.4088 ± 0.0012	1267 ± 3
x2 = 0.1	1016.77 ± 0.34	1.40722 ± 0.0012	1263 ± 3
x2 = 0.15	1010.85 ± 0.34	1.40535 ± 0.0012	1256 ± 3
x2 = 0.2	1004.94 ± 0.34	1.40357 ± 0.0012	1249 ± 3
x2 = 0.251	998.8 ± 0.34	1.40168 ± 0.0012	1243 ± 3
x2 = 0.3	992.68 ± 0.35	1.40005 ± 0.0012	1236 ± 3
x2 = 0.35	986.4 ± 0.36	1.39819 ± 0.0012	1229 ± 3
x2 = 0.4	979.87 ± 0.36	1.39623 ± 0.0012	1222 ± 3
x2 = 0.45	973.59 ± 0.36	1.39451 ± 0.0012	1215 ± 3
x2 = 0.5	966.98 ± 0.37	1.39263 ± 0.0012	1208 ± 3
x2 = 0.55	960.41 ± 0.38	1.3906 ± 0.0012	1201 ± 3
x2 = 0.6	953.46 ± 0.39	1.38855 ± 0.0012	1194 ± 3
x2 = 0.65	946.64 ± 0.4	1.38645 ± 0.0013	1188 ± 3
x2 = 0.7	939.6 ± 0.41	1.3842 ± 0.0013	1180 ± 3
x2 = 0.756	931.41 ± 0.42	1.38126 ± 0.0013	1173 ± 3
x2 = 0.8	924.84 ± 0.42	1.37923 ± 0.0013	1167 ± 3
x2 = 0.849	917.72 ± 0.43	1.37694 ± 0.0013	1160 ± 3
x2 = 0.9	910.03 ± 0.44	1.3747 ± 0.0013	1153 ± 3
x2 = 0.95	902.37 ± 0.45	1.3722 ± 0.0013	1145 ± 3

CCOC(C)=O [ethyl acetate]
Details	mass density [kg/m3]	refractive index	speed of sound [m/s]
[1]	–	1.36978 ± 0.0012	–
[2]	894.29 ± 0.34	–	1138 ± 3

Details	vapor or sublimation pressure [kPa]
[2], 350.25 K	101.3 ± 1

CCOC(=O)C(C)O (stereo not drawn) [DL-ethyl lactate] + COC(C)=O
Details	mass density, [3] [kg/m3]	refractive index, [4]	speed of sound, [3] [m/s]
x2 = 0.058	1024.62 ± 0.28	1.40872 ± 0.0012	1272 ± 3
x2 = 0.1	1021.03 ± 0.27	1.40699 ± 0.0012	1266 ± 3
x2 = 0.15	1017.3 ± 0.26	1.40595 ± 0.0012	1261 ± 3
x2 = 0.2	1013.63 ± 0.26	1.40379 ± 0.0012	1255 ± 3
x2 = 0.25	1009.78 ± 0.27	1.4023 ± 0.0012	1250 ± 3
x2 = 0.3	1005.46 ± 0.28	1.39968 ± 0.0013	1244 ± 3
x2 = 0.35	1001.13 ± 0.28	1.39787 ± 0.0012	1238 ± 3
x2 = 0.4	996.59 ± 0.28	1.39628 ± 0.0012	1232 ± 3
x2 = 0.45	992.2 ± 0.28	1.39379 ± 0.0013	1226 ± 3
x2 = 0.5	987.41 ± 0.29	1.39125 ± 0.0013	1220 ± 3
x2 = 0.55	982.34 ± 0.29	1.3879 ± 0.0013	1213 ± 3
x2 = 0.6	977.25 ± 0.3	1.38498 ± 0.0013	1207 ± 3
x2 = 0.65	972.03 ± 0.31	1.38197 ± 0.0013	1200 ± 3
x2 = 0.7	966.3 ± 0.32	1.37916 ± 0.0013	1193 ± 3
x2 = 0.75	960.47 ± 0.32	1.37601 ± 0.0013	1186 ± 3
x2 = 0.8	954.34 ± 0.33	1.37278 ± 0.0013	1180 ± 3
x2 = 0.85	947.87 ± 0.34	1.3696 ± 0.0013	1172 ± 3
x2 = 0.9	941.28 ± 0.35	1.36642 ± 0.0013	1164 ± 3
x2 = 0.95	934.27 ± 0.36	1.36248 ± 0.0013	1157 ± 3

CCOC(=O)C(C)O (racemic) [DL-ethyl lactate]
Details	mass density [kg/m3]	refractive index	speed of sound [m/s]
[1]	–	1.4105 ± 0.0012	–
[2]	1028.02 ± 0.27	–	1277 ± 3

Details	vapor or sublimation pressure [kPa]
[2], 424.98 K	101.3 ± 1
